# Measurements as given in patent publication US20150119410A1, “BIOMARKERS OF RESPONSE TO NAE INHIBITORS” (MILLENNIUM PHARMACEUTICALS, INC., priority 2011, published 2015).
# Assays:
# Assay in all cases: Cell line panel 2 high-content screen
# Assay type in all cases: cell-based
# SW1417 = details: Homo sapiens; SW1417 (intestine); 72 hours
# Procedure: (§1) To support clinical development and identify potential biomarkers of tumor sensitivity or resistance, two large cancer cell line panels (Panel 1, N=653 (McDermott et al. (2007) PNAS 104:19936-19941); Panel 2, N=240 (O'Day et al. (2010) Fourth AACR International Conference on Molecular Diagnostics in Cancer Therapeutic Development)) were treated with MLN4924 and cell viability data (IC50, EC50, and POC—Percentage of Control) were generated.
# (§2) Panel 2 (Ricerca Biosciences, Inc., Bothell, Wash.). MLN4924 was added in half-log dilutions for 10 concentrations and treated for 72 hours. High-content cell screening by fluorescence microscopy included image analysis to generate several types of data. Results included EC50 values (after measurement of cell numbers, the EC50 concentration was calculated from the inflection point of a curve of percent of control (POC) against log of MLN4924 concentration), IC50 values (from the POC-log MLN4924 plot, IC50 is the concentration at 50% maximal possible response), apoptosis (measurement of activation of caspase 3 plotted against log of MLN4924 concentration, determined as the concentration for >5 fold induction), and mitotic activity (determined by measuring the fold increase of phospho-histone 3). A comparison of EC50 to IC50 (FIG. 3) allowed assignment of cell lines to sensitive, insensitive or resistant. Final identification of a cell line as sensitive or resistant was based on the EC50 values. The cutoff for sensitivity is a median EC50 of less than the median value of all POC's recorded in the panel (<0.36), borderline sensitivity was associated with median EC50 of 0.36 to 1.67 and insensitive or resistant cell lines were identified by EC50 greater than the 3rd quartile of all POC's in the panel (>1.67).
# 647-V = details: Homo sapiens; 647-V (urinary_tract); 72 hours
# Procedure: as §1, §2
# SK-OV-3 = details: Homo sapiens; SK-OV-3 (ovary); 72 hours
# Procedure: as §1, §2
# RL95-2 = RL95-2 (endometrium)
# Procedure: as §1, §2
# YAPC = details: Homo sapiens; YAPC (pancreas); 72 hours
# Procedure: as §1, §2
# NCl-H520 = NCl-H520 (lung NSCLC); 72 hours
# Procedure: as §1, §2
# SW954 = SW954 (vulva)
# Procedure: as §1, §2
# SW 1116 = details: Homo sapiens; SW 1116 (intestine); 72 hours
# Procedure: as §1, §2
# MDA-MB-468 = details: Homo sapiens; MDA-MB-468 (breast); 72 hours
# Procedure: as §1, §2
# BxPC-3 = details: Homo sapiens; BxPC-3 (pancreas); 72 hours
# Procedure: as §1, §2
# HT29 = details: Homo sapiens; HT29 / HT-29 (intestine); 72 hours
# Procedure: as §1, §2
# SW837 = details: Homo sapiens; SW837 (intestine); 72 hours
# Procedure: as §1, §2
# T84 = details: Homo sapiens; T84 (intestine); 72 hours
# Procedure: as §1, §2
# BV-173 = BV-173 (haematopoietic, lymphoid_tissue)
# Procedure: as §1, §2
# SKUT1 = details: Homo sapiens, SK-UT-1; SKUT1 (smooth muscle); 72 hours
# Procedure: as §1, §2
# CFPAC-1 = details: Homo sapiens; CFPAC-1 (pancreas); 72 hours
# Procedure: as §1, §2
# LS1034 = details: Homo sapiens, LS-1034; LS1034 (intestine); 72 hours
# Procedure: as §1, §2
# HCT-15 = details: Homo sapiens; HCT-15 (intestine); 72 hours
# Procedure: as §1, §2
# SW620 = details: Homo sapiens, SW-620; SW620 (intestine); 72 hours
# Procedure: as §1, §2
# COLO-205 = details: Homo sapiens; COLO-205 (intestine); 72 hours
# Procedure: as §1, §2
# FADU = details: Homo sapiens; FADU (upper aerodigestive tract); 72 hours
# Procedure: as §1, §2
# MIA-PaCa-2 = details: Homo sapiens; MIA-PaCa-2 (pancreas); 72 hours
# Procedure: as §1, §2
# NClH747 = NClH747 (intestine); 72 hours
# Procedure: as §1, §2
# MDA-MB-231 = details: Homo sapiens; MDA-MB-231 (breast); 72 hours
# Procedure: as §1, §2
# ACHN = details: Homo sapiens; ACHN (kidney); 72 hours
# Procedure: as §1, §2
# CAPAN-1 = details: Homo sapiens; CAPAN-1 (pancreas); 72 hours
# Procedure: as §1, §2
# THP-1 = THP-1 (haematopoietic, lymphoid_tissue)
# Procedure: as §1, §2
# LS-174T = details: Homo sapiens, LS174T; LS-174T (large_intestine); 72 hours
# Procedure: as §1, §2
# CAL-62 = details: Homo sapiens; CAL-62 (thyroid); 72 hours
# Procedure: as §1, §2
structure (smiles),measurement,setting,value
"NS(=O)(=O)OC[C@@H]1C[C@@H](n2ccc3c(N[C@H]4CCc5ccccc54)ncnc32)C[C@@H]1O [MLN4924, ((1S,2S,4R)-4-{4-[(1S)-2,3-dihydro-1H-inden-1-ylamino]-7H-pyrrolo[2,3-d]pyrimidin-7-yl}-2-hydroxycyclopentyl)methyl sulphamate]",EC50,SW1417,9030 nM
same,EC50,647-V,283 nM
same,EC50,SK-OV-3,10000 nM
same,EC50,"RL95-2; Homo sapiens, 72 hours",94 nM
same,Phenotype,RL95-2; NF2 mutant,sensitive (The cutoff for sensitivity is a median EC50 of less than the median value of all POC's recorded in the panel (<0.36))
same,EC50,YAPC,234 nM
same,EC50,NCl-H520,261 nM
same,EC50,"SW954; Homo sapiens, SW 954, 72 hours",324 nM
same,Phenotype,SW954; SMAD4 mutant,sensitive (The cutoff for sensitivity is a median EC50 of less than the median value of all POC's recorded in the panel (<0.36))
same,EC50,SW 1116,10000 nM
same,EC50,MDA-MB-468,26.7 nM
same,EC50,BxPC-3,251 nM
same,EC50,HT29,250 nM
same,EC50,SW837,694 nM
same,EC50,T84,556 nM
same,Phenotype,BV-173; KDM6A mutant,sensitive (The cutoff for sensitivity is a median EC50 of less than the median value of all POC's recorded in the panel (<0.36))
same,EC50,"BV-173; Homo sapiens, 72 hours",131 nM
same,EC50,SKUT1,85.6 nM
same,EC50,CFPAC-1,6370 nM
same,EC50,LS1034,3760 nM
same,EC50,HCT-15,836 nM
same,EC50,SW620,387 nM
same,EC50,COLO-205,92.3 nM
same,EC50,FADU,261 nM
same,EC50,MIA-PaCa-2,239 nM
same,EC50,NClH747,2070 nM
same,EC50,MDA-MB-231,871 nM
same,EC50,ACHN,652 nM
same,EC50,CAPAN-1,365 nM
same,EC50,"THP-1; Homo sapiens, 72 hours",148 nM
same,Phenotype,THP-1; KDM6A mutant,sensitive (The cutoff for sensitivity is a median EC50 of less than the median value of all POC's recorded in the panel (<0.36))
same,EC50,LS-174T,137 nM
same,EC50,CAL-62,83.7 nM
